Results taken from ChEMBL document CHEMBL1909046, “DrugMatrix in vitro pharmacology data”.

Legend:
[1] = molecular target: Cytochrome P450 2E1 (Homo sapiens, UniProt P05181); conditions: bti-tn-5b1-4; further: in other assays of this panel Not Active means under 50% inhibition at 10 µM
[2] = molecular target: T1, Neuropeptide Y receptor type 1 (Homo sapiens, UniProt P25929); format: cell membranes, Membrane; conditions: sk-n-mc; further: in other assays of this panel Not Active means under 50% inhibition at 10 µM
T1 sequence (P25929 whole entry): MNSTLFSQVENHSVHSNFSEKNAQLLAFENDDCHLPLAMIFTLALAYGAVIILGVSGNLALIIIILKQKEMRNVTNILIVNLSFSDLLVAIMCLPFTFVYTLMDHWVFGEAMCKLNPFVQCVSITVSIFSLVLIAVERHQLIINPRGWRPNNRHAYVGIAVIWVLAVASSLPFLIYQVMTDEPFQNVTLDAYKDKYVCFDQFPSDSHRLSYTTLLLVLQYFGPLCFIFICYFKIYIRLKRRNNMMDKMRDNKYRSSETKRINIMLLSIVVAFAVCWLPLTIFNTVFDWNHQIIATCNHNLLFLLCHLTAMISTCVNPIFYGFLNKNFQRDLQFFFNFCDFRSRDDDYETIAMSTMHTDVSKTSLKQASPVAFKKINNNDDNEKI

[3] = molecular target: 5-hydroxytryptamine receptor 1B (Rattus norvegicus, UniProt P28564); format: cell membranes, Wistar, Cerebral cortex, Membrane; further: in other assays of this panel Not Active means under 50% inhibition at 10 µM
[4] = molecular target: Nitric oxide synthase 1 (Rattus norvegicus, UniProt P29476); format: tissue-based, Cerebellum; further: in other assays of this panel Not Active means under 50% inhibition at 10 µM
[5] = molecular target: Sigma non-opioid intracellular receptor 1 (Homo sapiens, UniProt Q99720); assay: DRUGMATRIX: Sigma1 radioligand binding (ligand: [3H] Haloperidol); format: cell membranes, Jurkat, Membrane; conditions: Not Active = under 50% inhibition at 10 µM
[6] = DRUGMATRIX: Imidazoline I2, Central radioligand binding (ligand: [3H] Idazoxan); format: cell membranes, Rattus norvegicus, Wistar, Cerebral cortex, Membrane; conditions: Not Active = under 50% inhibition at 10 µM

Sigma non-opioid intracellular receptor 1, sequence (Q99720 whole entry): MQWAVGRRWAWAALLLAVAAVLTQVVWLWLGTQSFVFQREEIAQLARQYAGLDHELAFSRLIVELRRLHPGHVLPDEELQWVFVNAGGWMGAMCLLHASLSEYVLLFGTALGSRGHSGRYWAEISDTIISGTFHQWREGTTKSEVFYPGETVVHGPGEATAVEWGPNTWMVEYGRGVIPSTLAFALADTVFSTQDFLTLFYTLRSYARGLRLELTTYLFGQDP
5-hydroxytryptamine receptor 1B, sequence (P28564 whole entry): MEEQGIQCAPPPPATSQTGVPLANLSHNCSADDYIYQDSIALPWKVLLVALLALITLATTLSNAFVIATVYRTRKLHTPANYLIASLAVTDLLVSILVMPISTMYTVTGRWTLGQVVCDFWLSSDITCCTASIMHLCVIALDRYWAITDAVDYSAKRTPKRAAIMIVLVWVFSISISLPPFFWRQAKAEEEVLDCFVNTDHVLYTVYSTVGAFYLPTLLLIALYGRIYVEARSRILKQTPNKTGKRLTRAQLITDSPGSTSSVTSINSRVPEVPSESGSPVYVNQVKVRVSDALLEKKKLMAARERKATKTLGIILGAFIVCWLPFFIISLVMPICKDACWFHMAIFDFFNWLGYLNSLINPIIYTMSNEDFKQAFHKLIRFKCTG
Nitric oxide synthase 1, sequence (P29476 whole entry): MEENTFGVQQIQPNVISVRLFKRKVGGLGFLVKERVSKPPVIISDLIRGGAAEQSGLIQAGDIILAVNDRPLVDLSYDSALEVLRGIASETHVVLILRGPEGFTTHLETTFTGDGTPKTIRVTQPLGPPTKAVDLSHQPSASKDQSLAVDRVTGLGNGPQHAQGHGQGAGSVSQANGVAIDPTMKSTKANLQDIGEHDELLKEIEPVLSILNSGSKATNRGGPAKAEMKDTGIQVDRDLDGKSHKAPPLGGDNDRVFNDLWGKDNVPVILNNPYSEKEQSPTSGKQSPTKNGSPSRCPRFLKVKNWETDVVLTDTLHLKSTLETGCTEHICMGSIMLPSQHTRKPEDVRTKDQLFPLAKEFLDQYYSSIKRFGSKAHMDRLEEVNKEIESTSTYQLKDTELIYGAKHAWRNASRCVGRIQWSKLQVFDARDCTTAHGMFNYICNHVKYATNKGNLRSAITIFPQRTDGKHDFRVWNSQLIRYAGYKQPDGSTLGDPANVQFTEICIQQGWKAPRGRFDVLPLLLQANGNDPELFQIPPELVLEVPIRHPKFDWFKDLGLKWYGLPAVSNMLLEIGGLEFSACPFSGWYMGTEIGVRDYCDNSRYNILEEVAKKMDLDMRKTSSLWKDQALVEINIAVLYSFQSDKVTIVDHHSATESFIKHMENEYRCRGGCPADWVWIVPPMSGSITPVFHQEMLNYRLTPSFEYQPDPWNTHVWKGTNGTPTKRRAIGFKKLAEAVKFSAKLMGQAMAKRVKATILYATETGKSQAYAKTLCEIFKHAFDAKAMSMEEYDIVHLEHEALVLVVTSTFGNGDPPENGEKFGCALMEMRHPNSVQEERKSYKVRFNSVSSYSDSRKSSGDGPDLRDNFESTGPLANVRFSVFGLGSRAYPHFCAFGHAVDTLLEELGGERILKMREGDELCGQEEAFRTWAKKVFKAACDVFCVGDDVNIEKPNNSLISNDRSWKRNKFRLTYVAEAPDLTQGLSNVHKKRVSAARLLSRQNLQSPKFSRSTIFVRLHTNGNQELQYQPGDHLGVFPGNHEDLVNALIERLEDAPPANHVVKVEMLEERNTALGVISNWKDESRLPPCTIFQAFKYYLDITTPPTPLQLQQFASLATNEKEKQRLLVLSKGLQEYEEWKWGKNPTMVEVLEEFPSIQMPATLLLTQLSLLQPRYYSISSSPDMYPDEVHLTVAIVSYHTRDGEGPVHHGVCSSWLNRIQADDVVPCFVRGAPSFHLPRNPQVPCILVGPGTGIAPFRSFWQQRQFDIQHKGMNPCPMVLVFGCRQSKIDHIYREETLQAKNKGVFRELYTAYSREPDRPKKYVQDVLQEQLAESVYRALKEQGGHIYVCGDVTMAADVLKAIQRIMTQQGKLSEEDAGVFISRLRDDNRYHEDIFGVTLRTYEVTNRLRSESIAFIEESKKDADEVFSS
Cytochrome P450 2E1, sequence (P05181 whole entry): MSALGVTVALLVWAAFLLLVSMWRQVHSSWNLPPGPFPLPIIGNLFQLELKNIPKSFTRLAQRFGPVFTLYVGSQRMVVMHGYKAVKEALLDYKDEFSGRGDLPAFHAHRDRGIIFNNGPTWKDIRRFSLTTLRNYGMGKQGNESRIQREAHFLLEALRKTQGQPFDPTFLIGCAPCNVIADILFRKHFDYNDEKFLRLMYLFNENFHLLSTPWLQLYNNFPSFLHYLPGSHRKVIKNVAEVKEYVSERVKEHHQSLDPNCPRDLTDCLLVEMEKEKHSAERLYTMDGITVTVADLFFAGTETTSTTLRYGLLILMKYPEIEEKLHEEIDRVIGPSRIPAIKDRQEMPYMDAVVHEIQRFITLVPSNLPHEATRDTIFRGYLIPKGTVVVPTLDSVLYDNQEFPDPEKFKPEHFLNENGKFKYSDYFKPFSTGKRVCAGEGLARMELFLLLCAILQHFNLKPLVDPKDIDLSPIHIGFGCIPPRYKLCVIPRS

Compound	IC50 [1]	Ki [1]	IC50 [2]	IC50 [3]	IC50 [4]	IC50 ([5]; jurkat)	IC50 [6]	Ki [6]	Ki [2]	Ki [3]	Ki [4]	Ki ([5]; jurkat)	IC50 ([5]; read-out: IC50)	Ki ([5]; read-out: Ki)	IC50 ([6]; read-out: IC50)	Ki ([6]; read-out: Ki)	IC50 ([3]; read-out: IC50)	Ki ([3]; read-out: Ki)
Cc1onc(-c2ccccc2Cl)c1C(=O)N[C@@H]1C(=O)N2[C@@H]1SC(C)(C)[C@@H]2C(=O)O [CLOXACILLIN]	Not Active	Not Active	Not Active	Not Active	Not Active	Not Active	Not Active	Not Active										
CADMIUM ACETATE	Not Active	Not Active	Not Active	Not Active	Not Active	Not Active	Not Active	Not Active	Not Active	Not Active	Not Active	Not Active						
CNCCCN1c2ccccc2CCc2ccccc21 [DESIPRAMINE]	Not Active	Not Active	Not Active	Not Active	Not Active	Not Active	Not Active	Not Active										
C[C@]12CCC(=O)C=C1CC[C@@H]1[C@@H]2CC[C@@]2(C)[C@H]1CC[C@]2(C)O [METHYLTESTOSTERONE]	Not Active	Not Active	Not Active	Not Active	Not Active	Not Active	Not Active	Not Active										
CC(=O)O[C@@]12CO[C@@H]1C[C@H](O)[C@@]1(C)C(=O)[C@H](O)C3=C(C)[C@@H](OC(=O)[C@H](O)[C@@H](NC(=O)OC(C)(C)C)c4ccccc4)C[C@@](O)([C@@H](OC(=O)c4ccccc4)[C@H]21)C3(C)C.O.O.O [DOCETAXEL]	Not Active	Not Active	Not Active	Not Active	Not Active	Not Active	Not Active	Not Active										
Nc1ncn([C@@H]2O[C@H](CO)[C@@H](O)[C@H]2O)c(=O)n1 [AZACITIDINE]	Not Active	Not Active	Not Active	Not Active	Not Active	Not Active	Not Active	Not Active										
C[C@](N)(Cc1ccc(O)c(O)c1)C(=O)O [METHYLDOPA]	Not Active	Not Active	Not Active	Not Active	Not Active	Not Active	Not Active	Not Active										
CN(C)CCCN1c2ccccc2Sc2ccccc21 [PROMAZINE]	Not Active	Not Active	Not Active	Not Active	Not Active								271 nM	114 nM	1100 nM	732 nM		
CC1CC(OC(=O)C(O)c2ccccc2)CC(C)(C)C1 (configuration not stated) [CYCLANDELATE]	Not Active	Not Active	Not Active	Not Active	Not Active	Not Active	Not Active	Not Active										
CCCN1C[C@H](CSC)C[C@@H]2c3cccc4[nH]cc(c34)C[C@H]21 [PERGOLIDE]	Not Active	Not Active	Not Active		Not Active	Not Active									3080 nM	2050 nM	87 nM	40 nM
c1ccc2c(c1)c1cccc3ccc4cccc2c4c31 [BENZO[E]PYRENE]	Not Active	Not Active	Not Active	Not Active	Not Active	Not Active	Not Active	Not Active										
CC(C)[C@@]1(NC(=O)[C@@H]2C[C@@H]3c4cccc5[nH]cc(c45)C[C@H]3N(C)C2)O[C@@]2(O)[C@@H]3CCCN3C(=O)[C@H](Cc3ccccc3)N2C1=O.CS(=O)(=O)O [DIHYDROERGOCRISTINE MESYLATE]	Not Active	Not Active	Not Active		Not Active	Not Active									5.43 nM	3.62 nM	24 nM	11 nM
CC[C@@]1(O)C[C@H](O[C@H]2C[C@H](N(C)C)[C@H](O[C@H]3C[C@H](O)[C@H](O[C@H]4CCC(=O)[C@H](C)O4)[C@H](C)O3)[C@H](C)O2)c2c(cc3c(c2O)C(=O)c2c(O)cccc2C3=O)[C@H]1C(=O)OC [ACLARUBICIN]	Not Active	Not Active	Not Active	Not Active	Not Active	Not Active	Not Active	Not Active										
CCn1cc(C(=O)O)c(=O)c2cc(F)c(N3CCNCC3)cc21 [NORFLOXACIN]	Not Active	Not Active	Not Active	Not Active	Not Active	Not Active	Not Active	Not Active										
Cc1c(O)c(=O)ccn1C [DEFERIPRONE]	Not Active	Not Active	Not Active	Not Active	Not Active	Not Active	Not Active	Not Active										
NC1=NC(=O)C(c2ccccc2)O1 (configuration not stated) [PEMOLINE]	Not Active	Not Active	Not Active	Not Active	Not Active	Not Active	Not Active	Not Active										
Sc1ncnc2nc[nH]c12 [MERCAPTOPURINE ANHYDROUS]	Not Active	Not Active	Not Active	Not Active	Not Active	Not Active	Not Active	Not Active										
COCCc1ccc(OCC(O)CNC(C)C)cc1 (configuration not stated) [METOPROLOL]	Not Active	Not Active	Not Active	Not Active	Not Active	Not Active	Not Active	Not Active										
O=c1[nH]c(=O)n([C@H]2C[C@H](O)[C@@H](CO)O2)cc1I [IDOXURIDINE]	Not Active	Not Active	Not Active	Not Active	Not Active	Not Active	Not Active	Not Active										
CNNCc1ccc(C(=O)NC(C)C)cc1 [PROCARBAZINE]	Not Active	Not Active	Not Active	Not Active	Not Active	Not Active	Not Active	Not Active										
CC(C)C(=O)Nc1ccc([N+](=O)[O-])c(C(F)(F)F)c1 [FLUTAMIDE]	Not Active	Not Active	Not Active	Not Active	Not Active	Not Active	Not Active	Not Active										
LEAD (II) ACETATE	Not Active	Not Active	Not Active	Not Active	Not Active	Not Active	Not Active	Not Active	Not Active	Not Active	Not Active	Not Active						
C[C@H]1c2cccc(O)c2C(=O)C2=C(O)[C@]3(O)C(=O)C(C(N)=O)=C(O)[C@@H](N(C)C)[C@@H]3[C@@H](O)[C@@H]21.O [DOXYCYCLINE]	Not Active	Not Active	Not Active	Not Active	Not Active	Not Active	Not Active	Not Active										
COc1ccc(C[C@H]2NC[C@H](O)[C@H]2OC(C)=O)cc1 [ANISOMYCIN]	Not Active	Not Active	Not Active	Not Active	Not Active	Not Active	Not Active	Not Active	Not Active	Not Active	Not Active	Not Active						
